In PubChem BioAssay AID1963986 (Molecular Pharmacology Branch, DTP, NCI, 2024):

System: 171881-019-R-J1-PDC tumor spheroid viability
Test: Anticancer human tumor 171881-019-R-J1-PDC patient-derived invasive breast carcinoma cell line growth inhibition [PI3K]
Settings: spheroids with HUVEC and MSC; for IC50: curve of first compound; for viability, T/C: stronger effect = lower value
In short: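 High-throughput combination screen: PI3K inhibitors crossed with targeted small molecules on complex spheroids of tumor cells, HUVEC and MSCs at 37 degrees C, 5% CO2. Top concentration was at or near clinical Cmax (otherwise 10 microM), with half-log decrements.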

[1] = second compound 0.00316 µM, first compound 0.0316 µM
[2] = second compound 0.00316 µM, first compound 0.1 µM
[3] = second compound 0.01 µM, first compound 0.0316 µM
[4] = second compound 0.01 µM, first compound 0.1 µM
[5] = second compound 0.0316 µM, first compound 0.0316 µM
[6] = second compound 0.0316 µM, first compound 0.1 µM
[7] = second compound 0.1 µM, first compound 0.0316 µM
[8] = second compound 0.1 µM, first compound 0.1 µM
[9] = second compound 0.316 µM, first compound 0.0316 µM
[10] = second compound 0.316 µM, first compound 0.1 µM
[11] = second compound 1 µM, first compound 0.0316 µM
[12] = second compound 1 µM, first compound 0.1 µM
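Also: spheroids exposed to compound for 7 days before viability read.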
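For viability, T/C in this document: 100% = DMSO vehicle-treated spheroids.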

C[C@@H](NC(=O)c1ncnc(N)c1Cl)c1ncc(C(=O)Nc2cc(C(F)(F)F)c(Cl)cn2)s1 + CC(Nc1ccc2c(c1)OCCn1cc(N3C(=O)OCC3C(F)F)nc1-2)C(N)=O
IC50 (second compound 0.00316 µM): 5950 nM | IC50 (second compound 0.01 µM): 2620 nM | IC50 (second compound 0.0316 µM): 399 nM | IC50 (second compound 0.1 µM): < 31.6 nM | IC50 (second compound 0.316 µM): < 31.6 nM | IC50 (second compound 1 µM): < 31.6 nM | viability, T/C [1]: 71.3% | viability, T/C [2]: 88.5% | viability, T/C (second compound 0.00316 µM, first compound 0.316 µM): 84.2% | viability, T/C (second compound 0.00316 µM, first compound 1 µM): 80.4% | viability, T/C (second compound 0.00316 µM, first compound 3.16 µM): 63.7% | viability, T/C (second compound 0.00316 µM, first compound 10 µM): 38.8% | viability, T/C [3]: 80.3% | viability, T/C [4]: 78.5% | viability, T/C (second compound 0.01 µM, first compound 0.316 µM): 65.8% | viability, T/C (second compound 0.01 µM, first compound 1 µM): 70.3% | viability, T/C (second compound 0.01 µM, first compound 3.16 µM): 44.4% | viability, T/C (second compound 0.01 µM, first compound 10 µM): 27.4% | viability, T/C [5]: 51.4% | viability, T/C [6]: 53.9% | viability, T/C (second compound 0.0316 µM, first compound 0.316 µM): 49.5% | viability, T/C (second compound 0.0316 µM, first compound 1 µM): 46.5% | viability, T/C (second compound 0.0316 µM, first compound 3.16 µM): 31.1% | viability, T/C (second compound 0.0316 µM, first compound 10 µM): 17.1% | viability, T/C [7]: 38.9% | viability, T/C [8]: 35.7% | viability, T/C (second compound 0.1 µM, first compound 0.316 µM): 33.8% | viability, T/C (second compound 0.1 µM, first compound 1 µM): 31.6% | viability, T/C (second compound 0.1 µM, first compound 3.16 µM): 20.1% | viability, T/C (second compound 0.1 µM, first compound 10 µM): 10.7% | viability, T/C [9]: 27% | viability, T/C [10]: 24.5% | viability, T/C (second compound 0.316 µM, first compound 0.316 µM): 24.9% | viability, T/C (second compound 0.316 µM, first compound 1 µM): 23% | viability, T/C (second compound 0.316 µM, first compound 3.16 µM): 13.5% | viability, T/C (second compound 0.316 µM, first compound 10 µM): 6.3% | viability, T/C [11]: 20.7% | viability, T/C [12]: 20.9% | viability, T/C (second compound 1 µM, first compound 0.316 µM): 19.3% | viability, T/C (second compound 1 µM, first compound 1 µM): 16.4% | viability, T/C (second compound 1 µM, first compound 3.16 µM): 9.28% | viability, T/C (second compound 1 µM, first compound 10 µM): 3.79%

Cn1ncnc1[C@H]1c2n[nH]c(=O)c3cc(F)cc(c23)N[C@@H]1c1ccc(F)cc1 + CC(Nc1ccc2c(c1)OCCn1cc(N3C(=O)OCC3C(F)F)nc1-2)C(N)=O
IC50 (second compound 0.00316 µM): > 100 nM | IC50 (second compound 0.01 µM): > 100 nM | IC50 (second compound 0.0316 µM): > 100 nM | IC50 (second compound 0.1 µM): < 0.316 nM | IC50 (second compound 0.316 µM): < 0.316 nM | IC50 (second compound 1 µM): < 0.316 nM | viability, T/C (second compound 0.00316 µM, first compound 0.000316 µM): 85.4% | viability, T/C (second compound 0.00316 µM, first compound 0.001 µM): 96.5% | viability, T/C (second compound 0.00316 µM, first compound 0.00316 µM): 95.2% | viability, T/C (second compound 0.00316 µM, first compound 0.01 µM): 91.6% | viability, T/C [1]: 95.9% | viability, T/C [2]: 70.6% | viability, T/C (second compound 0.01 µM, first compound 0.000316 µM): 79% | viability, T/C (second compound 0.01 µM, first compound 0.001 µM): 76.4% | viability, T/C (second compound 0.01 µM, first compound 0.00316 µM): 78.2% | viability, T/C (second compound 0.01 µM, first compound 0.01 µM): 65.5% | viability, T/C [3]: 81.5% | viability, T/C [4]: 71.5% | viability, T/C (second compound 0.0316 µM, first compound 0.000316 µM): 54% | viability, T/C (second compound 0.0316 µM, first compound 0.001 µM): 55.7% | viability, T/C (second compound 0.0316 µM, first compound 0.00316 µM): 51.5% | viability, T/C (second compound 0.0316 µM, first compound 0.01 µM): 52% | viability, T/C [5]: 55.3% | viability, T/C [6]: 48.7% | viability, T/C (second compound 0.1 µM, first compound 0.000316 µM): 37.8% | viability, T/C (second compound 0.1 µM, first compound 0.001 µM): 38.9% | viability, T/C (second compound 0.1 µM, first compound 0.00316 µM): 36.8% | viability, T/C (second compound 0.1 µM, first compound 0.01 µM): 38% | viability, T/C [7]: 36.8% | viability, T/C [8]: 34.5% | viability, T/C (second compound 0.316 µM, first compound 0.000316 µM): 26.2% | viability, T/C (second compound 0.316 µM, first compound 0.001 µM): 26.3% | viability, T/C (second compound 0.316 µM, first compound 0.00316 µM): 26.1% | viability, T/C (second compound 0.316 µM, first compound 0.01 µM): 25% | viability, T/C [9]: 26.2% | viability, T/C [10]: 21.1% | viability, T/C (second compound 1 µM, first compound 0.000316 µM): 21.7% | viability, T/C (second compound 1 µM, first compound 0.001 µM): 18.7% | viability, T/C (second compound 1 µM, first compound 0.00316 µM): 21.2% | viability, T/C (second compound 1 µM, first compound 0.01 µM): 18.6% | viability, T/C [11]: 19.8% | viability, T/C [12]: 17.7%
